Source: ChEMBL document CHEMBL1153976, “Synthesis and cytotoxicity of 2-cyano-28-hydroxy-lup-1-en-3-ones” (Bioorg Med Chem Lett, 2009)

Legend:
OVCAR-3 = assay: Antiproliferative activity against human OVCAR-3 cells after 120 hrs by MTS assay; assay type: functional, cell-based; settings: OVCAR-3, 120 h
Daoy = assay: Antiproliferative activity against human DaOY cells after 72 hrs by MTS assay; assay type: cell-based
HT-29 = assay: Antiproliferative activity against human HT-29 cells after 72 hrs by MTS assay; assay type: functional, cell-based; settings: HT-29, 72 h
[1] = Antiproliferative activity against human LN229 cells after 72 hrs by MTS assay; assay type: functional, cell-based; settings: LN-229, 72 h
A-375 = assay: Antiproliferative activity against human A375 cells after 72 hrs by MTS assay; assay type: functional, cell-based; settings: A-375, 72 h
SK-MEL-2 [2] = assay: Antiproliferative activity against human SK-MEL-2 cells after 72 hrs by MTS assay; assay type: functional, cell-based; settings: SK-MEL-2, 72 h
MCF7 = assay: Antiproliferative activity against human MCF7 cells after 72 hrs by MTS assay; assay type: functional, cell-based; settings: MCF7, 72 h
SK-MEL-2 [3] = assay: Induction of apoptosis in human SK-MEL-2 cells assessed as increase in caspase activation at 50 uM after 8 hrs by homogenous assay relative to control; assay type: functional
SK-MEL-2 [4] = assay: Induction of apoptosis in human SK-MEL-2 cells assessed as necrotic cells at 50 uM after 8 hrs by annexin V assay in presence of z-VAD; assay type: functional
SK-MEL-2 [5] = assay: Induction of apoptosis in human SK-MEL-2 cells assessed as apoptotic cells at 50 uM after 8 hrs by annexin V assay; assay type: functional
SK-MEL-2 [6] = assay: Induction of apoptosis in human SK-MEL-2 cells assessed as increase in caspase activation at 5 uM after 8 hrs by homogenous assay relative to control; assay type: functional
SK-MEL-2 [7] = assay: Induction of apoptosis in human SK-MEL-2 cells assessed as apoptotic cells at 50 uM after 8 hrs by annexin V assay in presence of z-VAD; assay type: functional
SK-MEL-2 [8] = assay: Induction of apoptosis in human SK-MEL-2 cells assessed as necrotic cells at 50 uM after 8 hrs by annexin V assay; assay type: functional

| Compound | IC50 (OVCAR-3) | IC50 (Daoy) | IC50 (HT-29) | IC50 [1] | IC50 (A-375) | IC50 (SK-MEL-2 [2]) | IC50 (MCF7) | fold change (FC) (SK-MEL-2 [3]) | Activity (SK-MEL-2 [4]) | Activity (SK-MEL-2 [5]) | fold change (FC) (SK-MEL-2 [6]) | Activity (SK-MEL-2 [7]) | Activity (SK-MEL-2 [8]) | Activity (SK-MEL-2 [6]) |
| --- | --- | --- | --- | --- | --- | --- | --- | --- | --- | --- | --- | --- | --- | --- |
| C=C(C)[C@@H]1CC[C@]2(COC3CCCCO3)CC[C@]3(C)[C@H](CC[C@@H]4[C@@]5(C)CC(C#N)C(=O)C(C)(C)[C@@H]5CC[C@]43C)[C@@H]12 (some centres undefined) | > 75 µM | 29 µM | > 75 µM | > 75 µM | 38 µM | 19 µM | 25 µM |  |  |  |  |  |  |  |
| C=C(C)[C@@H]1CC[C@]2(COC3CCCCO3)CC[C@]3(C)[C@H](CC[C@@H]4[C@@]5(C)C=C(C#N)C(=O)C(C)(C)[C@@H]5CC[C@]43C)[C@@H]12 (some centres undefined) | > 75 µM | 14 µM | > 75 µM | 21 µM | 12 µM | 23 µM | > 75 µM |  |  |  |  |  |  |  |
| CC(C)[C@@H]1CC[C@]2(C(=O)O)CC[C@]3(C)[C@H](CC[C@@H]4[C@@]5(C)C=C(C#N)C(=O)C(C)(C)[C@@H]5CC[C@]43C)[C@@H]12 | 24 µM | 71 µM | 18 µM | 30 µM | 16 µM | 59 µM | 59 µM |  |  |  |  |  |  |  |
| C=C(C)[C@@H]1CC[C@]2(CO)CC[C@]3(C)[C@H](CC[C@@H]4[C@@]5(C)C=C(C#N)C(=O)C(C)(C)[C@@H]5CC[C@]43C)[C@@H]12 | 7 µM | 8 µM | 8 µM | 6 µM | 6 µM | 7 µM | 25 µM | 8 | 4% | 24% | 2 | 7% | 3% |  |
| C=C(C)[C@@H]1CC[C@]2(CO)CC[C@]3(C)[C@H](CC[C@@H]4[C@@]5(C)Cc6cnoc6C(C)(C)[C@@H]5CC[C@]43C)[C@@H]12 | 60 µM | 8 µM | 10 µM | > 75 µM |  | 8 µM | 25 µM |  |  |  |  |  |  |  |
| C=C(C)[C@@H]1CC[C@]2(C=O)CC[C@]3(C)[C@H](CC[C@@H]4[C@@]5(C)C=C(C#N)C(=O)C(C)(C)[C@@H]5CC[C@]43C)[C@@H]12 | > 75 µM | 13 µM | 49 µM | > 75 µM | 7 µM | 40 µM | > 75 µM |  |  |  |  |  |  |  |
| C=C(C)[C@@H]1CC[C@]2(CO)CC[C@]3(C)[C@H](CC[C@@H]4[C@@]5(C)CC(C#N)C(=O)C(C)(C)[C@@H]5CC[C@]43C)[C@@H]12 (some centres undefined) | > 75 µM | 44 µM | 72 µM | > 75 µM | > 75 µM | 42 µM | 68 µM |  |  |  |  |  |  |  |
| CC(C)[C@@H]1CC[C@]2(COC3CCCCO3)CC[C@]3(C)[C@H](CC[C@@H]4[C@@]5(C)CC(C#N)C(=O)C(C)(C)[C@@H]5CC[C@]43C)[C@@H]12 (some centres undefined) |  | 21 µM | > 75 µM | 45 µM | 48 µM | 25 µM | > 75 µM |  |  |  |  |  |  |  |
| CC(C)[C@@H]1CC[C@]2(CO)CC[C@]3(C)[C@H](CC[C@@H]4[C@@]5(C)C=C(C#N)C(=O)C(C)(C)[C@@H]5CC[C@]43C)[C@@H]12 | 8 µM | 9 µM | 7 µM |  | 4 µM | 6 µM | > 75 µM |  |  |  |  |  |  |  |
| CC(C)[C@@H]1CC[C@]2(CO)CC[C@]3(C)[C@H](CC[C@@H]4[C@@]5(C)Cc6cnoc6C(C)(C)[C@@H]5CC[C@]43C)[C@@H]12 | 75 µM | 7 µM | 75 µM | > 75 µM | 10 µM | 8 µM | > 75 µM |  |  |  |  |  |  |  |
| C=C(C)[C@@H]1CC[C@]2(C(=O)O)CC[C@]3(C)[C@H](CC[C@@H]4[C@@]5(C)C=C(C#N)C(=O)C(C)(C)[C@@H]5CC[C@]43C)[C@@H]12 | > 75 µM | > 75 µM | 38 µM | 18 µM | > 75 µM | > 75 µM | > 75 µM |  |  |  |  |  |  |  |
| C=C(C)[C@@H]1CC[C@]2(C(=O)O)CC[C@]3(C)[C@H](CC[C@@H]4[C@@]5(C)CC[C@H](O)C(C)(C)[C@@H]5CC[C@]43C)[C@@H]12 [BETULINIC ACID] | 59 µM | 31 µM | 37 µM | 61 µM | 51 µM | 33 µM | 50 µM | 2.6 |  |  |  |  |  | 70% |
